Measurements reported in US7786064B1, “Ionic liquids derived from functionalized anionic surfactants” (The Procter & Gamble Company, priority 2004, dated 2010).

Test: Water Miscibility Test
Type: physicochemical
Settings: 0.5 g ionic liquid and 4.5 g de-ionized water, sonicated 1.5 hours; miscible if homogenous transparent system within 15 minutes of standing
Method: “Hydrophilic ionic compound” or “water miscible ionic compound” as used herein refers to ionic compound that is partially or wholly miscible with water, i.e. it is capable of forming a visually homogenous or transparent mixture with water according to the Water Miscibility Test described herein. The water miscibility of an ionic liquid is measured by the following water miscibility test. A mixture of 0.5 g ionic liquid and 4.5 g de-ionized water are sonicated in a Bransonic Ultrasonic Bath (model # 1210R-MTH, 50/60 Hz, 117 volts, 1.3 AMPS) according to manufacture's specifications for 1.5 hours. Thereafter, if a homogenous transparent system results within 15 minutes of standing without agitation, then the ionic liquid is water miscible.

| Water Miscible? | Substance |
| --- | --- |
| No | Tetraoctyl Ammonium Dodecylbenzenesulfonate [Example 3] |
| No | Triisooctylmethyl Ammonium Mid-Chain Branched Dodecylsulfate [Example 2] |

| Substance | Water Miscible? |
| --- | --- |
| Tetraoctyl Ammonium Mid-Chain Branched Dodecylsulfate [Example 1] | No |
